Conditions: Cohort 2 200 mg BID

## CC(C)NC(=O)COc1cccc(-c2nc(Nc3ccc4[nH]ncc4c3)c3ccccc3n2)c1 [Belumosudil, 2-{3-[4-(1H-indazol-5-ylamino)-2-quinazolinyl]phenoxy}-N-(propan-2-yl) acetamide]
  Conjunctivitis: Affected/At Risk (%): (6.25%)
  Constipation: # Events: 1
  Constipation: Affected/At Risk: 1/16
  Constipation: Affected/At Risk (%): (6.25%)
  Contrast media allergy: # Events: 2
  Contrast media allergy: Affected/At Risk: 2/16
  Contrast media allergy: Affected/At Risk (%): (12.5%)
  Contusion: # Events: 2
  Contusion: Affected/At Risk: 2/16
  Contusion: Affected/At Risk (%): (12.5%)
  Corneal abrasion: # Events: 0
  Corneal abrasion: Affected/At Risk: 0/16
  Corneal abrasion: Affected/At Risk (%): (0%)
  Corneal infection: # Events: 2
  Corneal infection: Affected/At Risk: 1/16
  Corneal infection: Affected/At Risk (%): (6.25%)
  Cough: # Events: 5
  Cough: Affected/At Risk: 4/16
  Cough: Affected/At Risk (%): (25%)
  Decreased appetite: # Events: 2
  Decreased appetite: Affected/At Risk: 2/16
  Decreased appetite: Affected/At Risk (%): (12.5%)
  Dehydration: # Events: 4
  Dehydration: Affected/At Risk: 3/16
  Dehydration: Affected/At Risk (%): (18.75%)
  Depression: # Events: 4
  Depression: Affected/At Risk: 4/16
  Depression: Affected/At Risk (%): (25%)
  Diarrhoea: # Events: 10
  Diarrhoea: Affected/At Risk: 5/16
  Diarrhoea: Affected/At Risk (%): (31.25%)
  Dizziness: # Events: 4
  Dizziness: Affected/At Risk: 1/16
  Dizziness: Affected/At Risk (%): (6.25%)
  Drug eruption: # Events: 1
  Drug eruption: Affected/At Risk: 1/16
  Drug eruption: Affected/At Risk (%): (6.25%)
  Dry eye: # Events: 4
  Dry eye: Affected/At Risk: 4/16
  Dry eye: Affected/At Risk (%): (25%)
  Dry skin: # Events: 0
  Dry skin: Affected/At Risk: 0/16
  Dry skin: Affected/At Risk (%): (0%)
  Dyspepsia: # Events: 2
  Dyspepsia: Affected/At Risk: 2/16
  Dyspepsia: Affected/At Risk (%): (12.5%)
  Dysphagia: # Events: 4
  Dysphagia: Affected/At Risk: 3/16
  Dysphagia: Affected/At Risk (%): (18.75%)
  Dyspnoea exertional: # Events: 0
  Dyspnoea exertional: Affected/At Risk: 0/16
  Dyspnoea exertional: Affected/At Risk (%): (0%)
  Dyspnoea: # Events: 7
  Dyspnoea: Affected/At Risk: 5/16
  Dyspnoea: Affected/At Risk (%): (31.25%)
  Embolism: # Events: 0
  Embolism: Affected/At Risk: 0/16
  Embolism: Affected/At Risk (%): (0%)
  Enamel anomaly: # Events: 1
  Enamel anomaly: Affected/At Risk: 1/16
  Enamel anomaly: Affected/At Risk (%): (6.25%)
  Epidural lipomatosis: # Events: 0
  Epidural lipomatosis: Affected/At Risk: 0/16
  Epidural lipomatosis: Affected/At Risk (%): (0%)
  Epstein-Barr virus infection: # Events: 0
  Epstein-Barr virus infection: Affected/At Risk: 0/16
  Epstein-Barr virus infection: Affected/At Risk (%): (0%)
  Erectile dysfunction: # Events: 0
  Erectile dysfunction: Affected/At Risk: 0/16
  Erectile dysfunction: Affected/At Risk (%): (0%)
  Eye irritation: # Events: 0
  Eye irritation: Affected/At Risk: 0/16
  Eye irritation: Affected/At Risk (%): (0%)
  Eye pain: # Events: 4
  Eye pain: Affected/At Risk: 2/16
  Eye pain: Affected/At Risk (%): (12.5%)
  Eye pruritus: # Events: 1
  Eye pruritus: Affected/At Risk: 1/16
  Eye pruritus: Affected/At Risk (%): (6.25%)
  Fall: # Events: 1
  Fall: Affected/At Risk: 1/16
  Fall: Affected/At Risk (%): (6.25%)
  Fatigue: # Events: 7
  Fatigue: Affected/At Risk: 3/16
  Fatigue: Affected/At Risk (%): (18.75%)
  Flatulence: # Events: 2
  Flatulence: Affected/At Risk: 1/16
  Flatulence: Affected/At Risk (%): (6.25%)
  Flushing: # Events: 1
  Flushing: Affected/At Risk: 1/16
  Flushing: Affected/At Risk (%): (6.25%)
  Fungal infection: # Events: 0
  Fungal infection: Affected/At Risk: 0/16
  Fungal infection: Affected/At Risk (%): (0%)
  Gamma-glutamyltransferase increased: # Events: 4
  Gamma-glutamyltransferase increased: Affected/At Risk: 4/16
  Gamma-glutamyltransferase increased: Affected/At Risk (%): (25%)
  Gastric ulcer: # Events: 1
  Gastric ulcer: Affected/At Risk: 1/16
  Gastric ulcer: Affected/At Risk (%): (6.25%)
  Gastrooesophageal reflux disease: # Events: 1
  Gastrooesophageal reflux disease: Affected/At Risk: 1/16
  Gastrooesophageal reflux disease: Affected/At Risk (%): (6.25%)
  Generalised oedema: # Events: 0
  Generalised oedema: Affected/At Risk: 0/16
  Generalised oedema: Affected/At Risk (%): (0%)
  Genital infection fungal: # Events: 1
  Genital infection fungal: Affected/At Risk: 1/16
  Genital infection fungal: Affected/At Risk (%): (6.25%)
  Glaucoma: # Events: 1
  Glaucoma: Affected/At Risk: 1/16
  Glaucoma: Affected/At Risk (%): (6.25%)
  Glucose urine present: # Events: 0
  Glucose urine present: Affected/At Risk: 0/16
  Glucose urine present: Affected/At Risk (%): (0%)
  Graft versus host disease in gastrointestinal tract: # Events: 0
  Graft versus host disease in gastrointestinal tract: Affected/At Risk: 0/16
  Graft versus host disease in gastrointestinal tract: Affected/At Risk (%): (0%)
  Gynaecomastia: # Events: 1
  Gynaecomastia: Affected/At Risk: 1/16
  Gynaecomastia: Affected/At Risk (%): (6.25%)
  Haematuria: # Events: 1
  Haematuria: Affected/At Risk: 1/16
  Haematuria: Affected/At Risk (%): (6.25%)
  Hair growth abnormal: # Events: 0
  Hair growth abnormal: Affected/At Risk: 0/16
  Hair growth abnormal: Affected/At Risk (%): (0%)
  Headache: # Events: 3
  Headache: Affected/At Risk: 3/16
  Headache: Affected/At Risk (%): (18.75%)
  Hodgkin's disease recurrent: # Events: 0
  Hodgkin's disease recurrent: Affected/At Risk: 0/16
  Hodgkin's disease recurrent: Affected/At Risk (%): (0%)
  Hordeolum: # Events: 0
  Hordeolum: Affected/At Risk: 0/16
  Hordeolum: Affected/At Risk (%): (0%)
  Hot flush: # Events: 0
  Hot flush: Affected/At Risk: 0/16
  Hot flush: Affected/At Risk (%): (0%)
  Hyperglycemia: # Events: 0
  Hyperglycemia: Affected/At Risk: 0/16
  Hyperglycemia: Affected/At Risk (%): (0%)
  Hyperhidrosis: # Events: 1
  Hyperhidrosis: Affected/At Risk: 1/16
  Hyperhidrosis: Affected/At Risk (%): (6.25%)
  Hyperkalaemia: # Events: 2
  Hyperkalaemia: Affected/At Risk: 2/16
  Hyperkalaemia: Affected/At Risk (%): (12.5%)
  Hypertension: # Events: 5
  Hypertension: Affected/At Risk: 2/16
  Hypertension: Affected/At Risk (%): (12.5%)
  Hyperthyroidism: # Events: 1
  Hyperthyroidism: Affected/At Risk: 1/16
  Hyperthyroidism: Affected/At Risk (%): (6.25%)
  Hypertriglyceridaemia: # Events: 1
  Hypertriglyceridaemia: Affected/At Risk: 1/16
  Hypertriglyceridaemia: Affected/At Risk (%): (6.25%)
  Hyperuricaemia: # Events: 2
  Hyperuricaemia: Affected/At Risk: 1/16
  Hyperuricaemia: Affected/At Risk (%): (6.25%)
  Hypoaesthesia: # Events: 0
  Hypoaesthesia: Affected/At Risk: 0/16
  Hypoaesthesia: Affected/At Risk (%): (0%)
  Hypocalcaemia: # Events: 4
  Hypocalcaemia: Affected/At Risk: 1/16
  Hypocalcaemia: Affected/At Risk (%): (6.25%)
  Hypogonadism: # Events: 0
  Hypogonadism: Affected/At Risk: 0/16
  Hypogonadism: Affected/At Risk (%): (0%)
  Hypokalaemia: # Events: 3
  Hypokalaemia: Affected/At Risk: 2/16
  Hypokalaemia: Affected/At Risk (%): (12.5%)
  Hypomagnesaemia: # Events: 1
  Hypomagnesaemia: Affected/At Risk: 1/16
  Hypomagnesaemia: Affected/At Risk (%): (6.25%)
  Hyponatraemia: # Events: 0
  Hyponatraemia: Affected/At Risk: 0/16
  Hyponatraemia: Affected/At Risk (%): (0%)
  Hypophosphataemia: # Events: 1
  Hypophosphataemia: Affected/At Risk: 1/16
  Hypophosphataemia: Affected/At Risk (%): (6.25%)
  Hypothermia: # Events: 1
  Hypothermia: Affected/At Risk: 1/16
  Hypothermia: Affected/At Risk (%): (6.25%)
  Hypothyroidism: # Events: 2
  Hypothyroidism: Affected/At Risk: 1/16
  Hypothyroidism: Affected/At Risk (%): (6.25%)
  Hypoxia: # Events: 5
  Hypoxia: Affected/At Risk: 2/16
  Hypoxia: Affected/At Risk (%): (12.5%)
  Impaired healing: # Events: 0
  Impaired healing: Affected/At Risk: 0/16
  Impaired healing: Affected/At Risk (%): (0%)
  Influenza like illness: # Events: 2
  Influenza like illness: Affected/At Risk: 1/16
  Influenza like illness: Affected/At Risk (%): (6.25%)
  Influenza: # Events: 2
  Influenza: Affected/At Risk: 1/16
  Influenza: Affected/At Risk (%): (6.25%)
  Insomnia: # Events: 0
  Insomnia: Affected/At Risk: 0/16
  Insomnia: Affected/At Risk (%): (0%)
  Irritability: # Events: 0
  Irritability: Affected/At Risk: 0/16
  Irritability: Affected/At Risk (%): (0%)
  Joint range of motion decreased: # Events: 1
  Joint range of motion decreased: Affected/At Risk: 1/16
  Joint range of motion decreased: Affected/At Risk (%): (6.25%)
  Lacrimation increased: # Events: 1
  Lacrimation increased: Affected/At Risk: 1/16
  Lacrimation increased: Affected/At Risk (%): (6.25%)
  Leukaemia recurrent: # Events: 0
  Leukaemia recurrent: Affected/At Risk: 0/16
  Leukaemia recurrent: Affected/At Risk (%): (0%)
  Leukocytosis: # Events: 0
  Leukocytosis: Affected/At Risk: 0/16
  Leukocytosis: Affected/At Risk (%): (0%)
  Ligament sprain: # Events: 0
  Ligament sprain: Affected/At Risk: 0/16
  Ligament sprain: Affected/At Risk (%): (0%)
  Limb injury: # Events: 0
  Limb injury: Affected/At Risk: 0/16
  Limb injury: Affected/At Risk (%): (0%)
  Macular degeneration: # Events: 1
  Macular degeneration: Affected/At Risk: 1/16
  Macular degeneration: Affected/At Risk (%): (6.25%)
  Migraine: # Events: 1
  Migraine: Affected/At Risk: 1/16
  Migraine: Affected/At Risk (%): (6.25%)
  Muscle spasms: # Events: 0
  Muscle spasms: Affected/At Risk: 0/16
  Muscle spasms: Affected/At Risk (%): (0%)
  Muscle spasticity: # Events: 0
  Muscle spasticity: Affected/At Risk: 0/16
  Muscle spasticity: Affected/At Risk (%): (0%)
  Muscular weakness: # Events: 1
  Muscular weakness: Affected/At Risk: 1/16
  Muscular weakness: Affected/At Risk (%): (6.25%)
  Musculoskeletal chest pain: # Events: 0
  Musculoskeletal chest pain: Affected/At Risk: 0/16
  Musculoskeletal chest pain: Affected/At Risk (%): (0%)
  Myalgia: # Events: 1
  Myalgia: Affected/At Risk: 1/16
  Myalgia: Affected/At Risk (%): (6.25%)
  Nail disorder: # Events: 0
  Nail disorder: Affected/At Risk: 0/16
  Nail disorder: Affected/At Risk (%): (0%)
  Nausea: # Events: 6
  Nausea: Affected/At Risk: 4/16
  Nausea: Affected/At Risk (%): (25%)
  Neck pain: # Events: 0
  Neck pain: Affected/At Risk: 0/16
  Neck pain: Affected/At Risk (%): (0%)
  Nephrotic syndrome: # Events: 1
  Nephrotic syndrome: Affected/At Risk: 1/16
  Nephrotic syndrome: Affected/At Risk (%): (6.25%)
  Neuropathy peripheral: # Events: 1
  Neuropathy peripheral: Affected/At Risk: 1/16
  Neuropathy peripheral: Affected/At Risk (%): (6.25%)
  Neutrophil count decreased: # Events: 0
  Neutrophil count decreased: Affected/At Risk: 0/16
  Neutrophil count decreased: Affected/At Risk (%): (0%)
  Nocturia: # Events: 0
  Nocturia: Affected/At Risk: 0/16
  Nocturia: Affected/At Risk (%): (0%)
  Non-cardiac chest pain: # Events: 3
  Non-cardiac chest pain: Affected/At Risk: 3/16
  Non-cardiac chest pain: Affected/At Risk (%): (18.75%)
  Obesity: # Events: 0
  Obesity: Affected/At Risk: 0/16
  Obesity: Affected/At Risk (%): (0%)
  Oedema peripheral: # Events: 5
  Oedema peripheral: Affected/At Risk: 4/16
  Oedema peripheral: Affected/At Risk (%): (25%)
